Data reported in patent US20260191849A1, “PHARMACEUTICAL COMPOSITION FOR TREATMENT OF CANCER” (WIGEN BIOMEDICINE TECHNOLOGY (SHANGHAI) CO., LTD., priority 2022, published 2026).
pEC50: −log10 of the molar value.

Key:
[1] = tested on: HT29 subcutaneous xenograft tumors; test: In vivo pharmacodynamic study, HT29 subcutaneous xenograft tumor model of mice (Biological Example 3); parameters: species or system BALB/c nude mice; conditions: for Tumor volume on day 1 of administration / TGI / Tumor volume on day 28 of administration: 80 mg/kg intragastric once daily; for Tumor volume on day 1 of administration: day 1 (baseline); for TGI / Tumor volume on day 28 of administration: day 28; for inhibitory effects on the HT29 subcutaneous xenograft tumor in mice compared with AMG650: 80 mg/kg, in words
Description: BALB/c nude mice were each inoculated subcutaneously with 5×10^6 HT29 cells on the left dorsal side. After the tumors grew to 100-150 mm^3, the mice were randomly divided into the following groups for intragastric administration once daily: group 1: vehicle control group; group 2: compound 661 (80 mg/kg); group 3: compound 669 (80 mg/kg); group 4: compound 677 (80 mg/kg); group 5: compound 714 (80 mg/kg); group 6: compound 727 (80 mg/kg); group 7: compound 740 (80 mg/kg); and group 8: AMG65 (80 mg/kg). The tumor volume was measured twice weekly and at the end of administration. […].

[2] = tested on: Histone H3 Ser10 site in HT29 cells; test: Phosphorylation assay of histone H3 Ser10 site in HT29 cells, immunofluorescence (Biological Example 4); assay type: cell-based; conditions: Homo sapiens, HT-29, 6 h, FITC/DAPI
Description: HT29 cells were seeded in a 96-well plate (Fisher 160376) at 8000 cells/well. The next day, the serially diluted compounds were added. Six hours after the addition of the compounds, the cells were washed once with 1×PBS, immobilized with 4% PFA for 15 min, further washed three times with 1×PBS, and permeabilized with 0.02% Triton-X100 for 10 min. Then, blocking was performed for 15-30 min using a blocking buffer. After a primary antibody (Phospho-Histone H3 (Ser10)) at a 1:3000 dilution was added, the well plate was left to stand at 4° C. overnight. The next day, the cells were washed three times with 1×PBS, and then a secondary antibody (Fluorescein (FITC)-conjugated Affinipure Goat Anti-Rabbit IgG (H+L)) at a 1:1000 dilution was added. The cells were incubated in the dark for 1-2 h and then washed three times with 1×PBS. Subsequently, the cell nuclei were stained using DAPI. The ratio of phosphorylation (FITC/DAPI) at H3 Ser10 site in HT29 cells was quantified. The effects of the compounds on Phospho-Histone H3 were evaluated, and EC50 values of the compounds were calculated.

[3] = tested on: HT29 subcutaneous xenograft tumors; test: In vivo pharmacodynamic study of combination therapy, HT29 subcutaneous xenograft tumor model of mice (Biological Example 14); parameters: species or system BALB/c nude mice
Source text: BALB/c nude mice were each inoculated subcutaneously with 5×10^6 HT29 cells on the left dorsal side. After the tumors grew to 100-150 mm^3, the mice were randomly divided into the following groups for intragastric administration once daily for 14 consecutive days: group 1: vehicle control group; group 2: AMG650 (50 mpk, PO, QD); group 3: compound 714 (50 mpk, PO, QD); group 4: AMG650 (50 mpk, PO, QD)+Onvasertib (20 mpk, PO, QD); group 5: compound 714 (50 mpk, PO, QD)+Onvasertib (20 mpk, PO, QD); and group 6: Onvasertib (20 mpk, PO, QD). The administration to all the groups was stopped on day 15, and the tumor growth continued to be observed until day 21. The tumor volume was measured twice weekly and at the end of administration. […]

[4] = PO QD 14 days, AMG650/714 50 mpk, Onvasertib 20 mpk, day 15
[5] = PO QD 14 days, AMG650/714 50 mpk, Onvasertib 20 mpk, day 21, after stop of administration

Row | SMILES | Tumor volume on day 1 of administration [1] | TGI [1] | Tumor volume on day 28 of administration [1] | inhibitory effects on the HT29 subcutaneous xenograft tumor in mice compared with AMG650 [1] | pEC50 [2] | Tumor volume on day 1 of administration ([3]; PO QD 14 days, AMG650/714 50 mpk, Onvasertib 20 mpk, day 1 (baseline)) | TGI on day 15 [3, 4] | Tumor volume on day 15 of administration [3, 4] | TGI on day 21 [3, 5] | Tumor volume on day 21 of administration [3, 5] | tumor inhibitory effect, combined use with the PLK1 inhibitor Onvasertib compared with monotherapy ([3]; combined with Onvasertib, in words) | therapeutic efficacy of monotherapy in HT29-bearing mice ([3]; monotherapy, in words)
1 | COc1ccc(NC(=O)c2ccc(NS(=O)(=O)CCOC(=O)[C@@H](N)C(C)C)cc2N2CCC3(CC2)CC3)nc1N1CCC(F)(F)CC1 [Compound 714] | 121 mm^3 | 80% | 424 mm^3 | stronger inhibitory effects | 7.41 | 134 mm^3 | 121% | 17 mm^3 | 110% | 49 mm^3 | stronger tumor inhibitory effect | able to inhibit tumor growth
2 | COc1ccc(NC(=O)c2ccc(S(=O)(=O)NCCOC(=O)[C@@H](N)C(C)C)cc2N2CCC3(CC2)CC3)nc1N1CCC(F)(F)CC1 [Compound 740] | 121 mm^3 | 67% | 605 mm^3 | stronger inhibitory effects |  |  |  |  |  |  |  | 
3 | COc1ccc(NC(=O)c2ccc(NS(=O)(=O)CCOC(C)=O)cc2N2CCC3(CC2)CC3)nc1N1CCC(F)(F)CC1 [Compound 661] |  | 61% |  |  |  |  |  |  |  |  |  | 
